Assay results taken from the NIST ThermoML archive (doi:10.1021/je100151b).

Columns and labels:
[1] = mn = molality of the nth substance listed, in mol/kg; conditions: 101 kPa, Liquid, m1 = 0.25
[2] = refractive index (Na D-line) (dimensionless); mn = molality of the nth substance listed, in mol/kg; conditions: 101 kPa, Liquid, Standard Abbe refractometry, m1 = 0.25

[Cl][Fe][Cl] [ferrous chloride] + O
Conditions	mass density, [1] [kg/m3]	refractive index, [2]
288.15 K	998.9	1.3375
293.15 K	998.2	1.3468
298.15 K	997	1.3559
303.15 K	996	1.3661
308.15 K	995	1.3768
313.15 K	994.5	1.3874
318.15 K	993.8	1.398
